Source: the supplement of paper PMC13207355
Structures can show the parent of a compound that is named as a salt.

How the values were obtained:
Details in all cases: exposure time: 72 h
[1] = test system: E13 (patient-derived glioblastoma stem cells of classical subtype); experiment: surviving fraction (nuclei count normalised to DMSO); higher = more cells surviving (less toxic)
[2] = test system: E21 (patient-derived glioblastoma stem cells of mesenchymal subtype); experiment: as above
[3] = test system: E28 (patient-derived glioblastoma stem cells of classical subtype); experiment: as above
[4] = test system: E31 (patient-derived glioblastoma stem cells of proneural subtype); experiment: as above
[5] = test system: E34 (patient-derived glioblastoma stem cells of proneural subtype); experiment: as above
[6] = test system: E57 (patient-derived glioblastoma stem cells of mesenchymal subtype); experiment: as above
[7] = test system: FT3469 (normal neural stem cell line); experiment: as above
[8] = test system: E13; experiment: phenotypic distance (Euclidean, principal components) from DMSO controls (arbitrary units); higher = stronger morphological change
[9] = test system: E21; experiment: as above
[10] = test system: E28; experiment: as above
[11] = test system: E31; experiment: as above
[12] = test system: E34; experiment: as above
[13] = test system: E57; experiment: as above
[14] = test system: FT3469; experiment: as above
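Throughout, for phenotypic distance (Euclidean, principal components) from DMSO controls: cell Painting imaging in 384-well plates, CellProfiler features reduced to at least 20 principal components, Euclidean distance versus same-plate DMSO vehicle wells (0.1% v/v), median over six images per well.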
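Throughout, for surviving fraction (nuclei count normalised to DMSO): nuclei counted by high-content imaging of Hoechst-stained cells in laminin-coated 384-well plates, relative to 0.1% DMSO vehicle wells, with staurosporine as cell-death control.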

CN[C@@H]1[C@@H](O)[C@@H](O[C@@H]2[C@@H](O)[C@H](O[C@H]3OC(CN)=CC[C@H]3N)[C@@H](N)C[C@H]2N)OC[C@]1(C)O [Sisomicin sulfate]
Details	phenotypic distance	surviving fraction
[1], 4.1 nM	–	1.01
[1], 12.3 nM	–	0.994
[1], 37 nM	–	0.923
[1], 111.1 nM	–	0.949
[1], 333.3 nM	–	0.983
[1], 1000 nM	–	1.1
[1], 3000 nM	–	0.959
[2], 4.1 nM	–	0.929
[2], 12.3 nM	–	1.06
[2], 37 nM	–	0.919
[2], 111.1 nM	–	0.966
[2], 333.3 nM	–	1.03
[2], 1000 nM	–	0.992
[2], 3000 nM	–	0.864
[3], 4.1 nM	–	0.849
[3], 12.3 nM	–	0.982
[3], 37 nM	–	0.892
[3], 111.1 nM	–	0.985
[3], 333.3 nM	–	0.937
[3], 1000 nM	–	0.984
[3], 3000 nM	–	0.902
[4], 4.1 nM	–	0.953
[4], 12.3 nM	–	0.893
[4], 37 nM	–	0.996
[4], 111.1 nM	–	0.985
[4], 333.3 nM	–	0.92
[4], 1000 nM	–	0.979
[4], 3000 nM	–	0.914
[5], 4.1 nM	–	0.838
[5], 12.3 nM	–	0.957
[5], 37 nM	–	0.811
[5], 111.1 nM	–	0.957
[5], 333.3 nM	–	0.867
[5], 1000 nM	–	0.88
[5], 3000 nM	–	0.901
[6], 4.1 nM	–	0.973
[6], 12.3 nM	–	0.964
[6], 37 nM	–	0.884
[6], 111.1 nM	–	0.95
[6], 333.3 nM	–	0.927
[6], 1000 nM	–	0.919
[6], 3000 nM	–	0.966
[7], 4.1 nM	–	0.936
[7], 12.3 nM	–	1.08
[7], 37 nM	–	1.04
[7], 111.1 nM	–	0.924
[7], 333.3 nM	–	1.08
[7], 1000 nM	–	1.08
[7], 3000 nM	–	1.02
[8], 4.1 nM	0.369	–
[8], 12.3 nM	0.462	–
[8], 37 nM	0.472	–
[8], 111.1 nM	0.486	–
[8], 333.3 nM	0.393	–
[8], 1000 nM	0.501	–
[8], 3000 nM	0.645	–
[9], 4.1 nM	0.673	–
[9], 12.3 nM	0.75	–
[9], 37 nM	0.611	–
[9], 111.1 nM	0.334	–
[9], 333.3 nM	0.705	–
[9], 1000 nM	0.424	–
[9], 3000 nM	1.26	–
[10], 4.1 nM	0.802	–
[10], 12.3 nM	0.276	–
[10], 37 nM	0.807	–
[10], 111.1 nM	0.454	–
[10], 333.3 nM	0.891	–
[10], 1000 nM	0.259	–
[10], 3000 nM	0.736	–
[11], 4.1 nM	0.521	–
[11], 12.3 nM	0.711	–
[11], 37 nM	0.705	–
[11], 111.1 nM	0.391	–
[11], 333.3 nM	0.642	–
[11], 1000 nM	0.692	–
[11], 3000 nM	0.63	–
[12], 4.1 nM	1.06	–
[12], 12.3 nM	0.852	–
[12], 37 nM	0.946	–
[12], 111.1 nM	0.273	–
[12], 333.3 nM	2.48	–
[12], 1000 nM	3.23	–
[12], 3000 nM	0.712	–
[13], 4.1 nM	0.637	–
[13], 12.3 nM	0.658	–
[13], 37 nM	0.794	–
[13], 111.1 nM	0.322	–
[13], 333.3 nM	0.595	–
[13], 1000 nM	0.802	–
[13], 3000 nM	0.686	–
[14], 4.1 nM	0.895	–
[14], 12.3 nM	0.713	–
[14], 37 nM	0.549	–
[14], 111.1 nM	0.66	–
[14], 333.3 nM	0.495	–
[14], 1000 nM	0.637	–
[14], 3000 nM	0.793	–
